Several values for one entry are separate records, joined by “and”; a condition that tells them apart may be missing. Equal values may be shown once.
What was measured:
[1] = system: intracellular PAP in wild type yeast; assay: Intracellular PAP concentration by GST-PST binding assay, wild type yeast; format: cell-based, S. cerevisiae
Experimental: (§1) Yeast were grown in CM/ura^− containing 2% galactose to mid-log phase. The cultures were washed extensively and resuspended in the CM/ura^−/met^− media with the noted inclusions. PAP was measured using the ligand binding assay described in Experimental Procedures. Intracellular PAP concentrations were normalized to the amount of soluble protein extracted from the cultures.
For the assay of intracellular PAP concentrations, appropriate yeast strains were grown in CM/ura^− to mid-log phase (OD600=1.0). The cells were centrifuged and washed extensively in sterile water. The cells were resuspended in CM/ura^−/met^− containing methionine (20 μg/ml), lithium, or chlorate as appropriate. The cultures were incubated with shaking at 30° C. At various time points, 2 ml of culture was removed and centrifuged. The cells were washed with 1 ml of water. 250 μl was centrifuged and resuspended in 200 μl K-lysis buffer. 200 μl of glass beads were added, and the cells were disrupted by vigorous bead beating. The amount of soluble protein in this extract was determined using a Bradford dye-binding assay (BioRad, Hercules, Calif., United States of America) with bovine serum albumin as a standard. The remaining 750 μl of washed cells was spun down and resuspended in 250 μl of 2 N HClO4. This was incubated at 4° C. for 20 min, when 250 μl of 1.8 N KOH, 0.4 N KHCO3 were added to neutralize and precipitate the HClO4. The extract was centrifuged at 4° C. to remove the debris, and the supernatant was lyophilized using a rotary evaporator. The dried extracts were frozen at −80° C. for no more than one week prior to use. Extracts were reconstituted in 100 μL of 200 mM HEPES, pH 7.5 and again centrifuged to remove debris. 5′ [^32P] 3′, 5′ PAP was created as described (Spiegelberg, 1999). The GST-PST assay was performed by mixing 10 μL of standard PAP, treated as above, or 10 μL of sample diluted approximately 1:1000 in K-lysis buffer, with 10 μL of radiolabeled PAP (approximately 10,000 CPM). Eighty microliters of a reaction mix containing 100 mM HEPES, pH 7.0, 5 mM DTT, 0.2 mg/ml BSA, and 1 μg of GST-PST were added to start the binding reaction. The reactions were allowed to equilibrate for at least one hour at room temperature. Following incubation, 20 μl of a 50:50 slurry of glutathione sepharose in K-lysis buffer was added. The tubes were incubated with gentle mixing for 10 min at room temperature. The protein with bound PAP was pulled down by centrifugation for 2 min at room temperature. 80 μl of the supernatant, containing free PAP, was removed to a scintillation vial and 200 μl of K-lysis buffer was added to wash the resin. The tubes were centrifuged again and the 200 μl wash was transferred to the original scintillation vials. Radioactivity was determined by adding 5 ml of […] ECONO2™ scintillation fluid (Fisher Scientific, Hampton, N.H., United States of America) and counted in a liquid scintillation counter. The counts were converted to percent isotope bound, and a standard curve was prepared by plotting percent bound vs. the logarithm of the PAP concentration. […]
The GST-PST binding assay was used to determine relative intracellular PAP concentrations in yeast strains grown under various conditions. The PAP concentration determined in the binding assay was normalized to the total soluble protein in parallel extracts, and background was eliminated by reporting only the signal that was sensitive to in vitro degradation by purified recombinant Hal2p. […]

[2] = system: intracellular PAP in met14Δ cells; format: cell-based, S. cerevisiae
Experimental: as §1
(§2) For the assay of intracellular PAP concentrations, appropriate yeast strains were grown in CM/ura^− to mid-log phase (OD600=1.0). The cells were centrifuged and washed extensively in sterile water. The cells were resuspended in CM/ura^−/met^− containing methionine (20 μg/ml), lithium, or chlorate as appropriate. The cultures were incubated with shaking at 30° C. At various time points, 2 ml of culture was removed and centrifuged. The cells were washed with 1 ml of water. 250 μl was centrifuged and resuspended in 200 μl K-lysis buffer. 200 μl of glass beads were added, and the cells were disrupted by vigorous bead beating. The amount of soluble protein in this extract was determined using a Bradford dye-binding assay (BioRad, Hercules, Calif., United States of America) with bovine serum albumin as a standard. The remaining 750 μl of washed cells was spun down and resuspended in 250 μl of 2 N HClO4. This was incubated at 4° C. for 20 min, when 250 μl of 1.8 N KOH, 0.4 N KHCO3 were added to neutralize and precipitate the HClO4. The extract was centrifuged at 4° C. to remove the debris, and the supernatant was lyophilized using a rotary evaporator. The dried extracts were frozen at −80° C. for no more than one week prior to use. Extracts were reconstituted in 100 μL of 200 mM HEPES, pH 7.5 and again centrifuged to remove debris. 5′ [^32P] 3′, 5′ PAP was created as described (Spiegelberg, 1999). The GST-PST assay was performed by mixing 10 μL of standard PAP, treated as above, or 10 μL of sample diluted approximately 1:1000 in K-lysis buffer, with 10 μL of radiolabeled PAP (approximately 10,000 CPM). Eighty microliters of a reaction mix containing 100 mM HEPES, pH 7.0, 5 mM DTT, 0.2 mg/ml BSA, and 1 μg of GST-PST were added to start the binding reaction. The reactions were allowed to equilibrate for at least one hour at room temperature. Following incubation, 20 μl of a 50:50 slurry of glutathione sepharose in K-lysis buffer was added. The tubes were incubated with gentle mixing for 10 min at room temperature. The protein with bound PAP was pulled down by centrifugation for 2 min at room temperature. 80 μl of the supernatant, containing free PAP, was removed to a scintillation vial and 200 μl of K-lysis buffer was added to wash the resin. The tubes were centrifuged again and the 200 μl wash was transferred to the original scintillation vials. Radioactivity was determined by adding 5 ml of […] ECONO2™ scintillation fluid (Fisher Scientific, Hampton, N.H., United States of America) and counted in a liquid scintillation counter. The counts were converted to percent isotope bound, and a standard curve was prepared by plotting percent bound vs. the logarithm of the PAP concentration. This standard curve was used to back-calculate the PAP concentration in the unknown samples.
(§3) The GST-PST binding assay was used to determine relative intracellular PAP concentrations in yeast strains grown under various conditions. The PAP concentration determined in the binding assay was normalized to the total soluble protein in parallel extracts, and background was eliminated by reporting only the signal that was sensitive to in vitro degradation by purified recombinant Hal2p. The assay was characterized further by analyzing the intracellular PAP concentration of wild type yeast grown in the presence of lithium.

[3] = system: intracellular PAP in met3Δ cells; format: cell-based, S. cerevisiae
Experimental: as §1, §2, §3

BPntase = conditions: cited from earlier work
Wild type yeast = assay: Lithium inhibition of yeast growth (OD600), wild type; format: cell-based, S. cerevisiae; conditions: CM/ura−/met−, 24 hr at 30° C.
Experimental: FIG. 7 is a graph showing met3Δ and met14Δ strains are lithium resistant. Wild type, met3Δ, and met14Δ yeast were resuspended at 5×10^4/ml in CM/ura^− containing 2% dextrose and 1.25 μg/ml methionine. Growth at various concentrations of LiCl was measured after a 24 hr incubation at 30° C. The growth is plotted relative to growth in media lacking lithium.
FIG. 10 is a graph showing methionine supplementation induces lithium resistance. Wild type yeast were inoculated at 5×10^4 cells per ml into synthetic media with or without methionine containing the noted concentration of LiCl. Growth was assayed by spectrophotometry following 48 hrs of growth at 30° C.
Wild type yeast were grown in CM/ura^− containing 2% galactose to mid-log phase. The cultures were washed and resuspended at 5×10^5 cells/ml in CM/ura^−/met^− containing the noted lithium and chlorate concentrations. Following growth for 24 hr at 30° C., the cultures were resuspended, and growth was measured by determining the absorbance at λ=600 nm.
Since methionine effects transcriptional down regulation of the MET3 and MET14 gene products in wild type yeast, the relative lithium sensitivities of the met3Δ and met14Δ strains were assayed in growth media containing reduced methionine (1.25 μg/ml). The use of limited methionine allowed for the comparison of the relative sensitivity to lithium of yeast expressing (wild type) or lacking (met3Δ and met14Δ) PAPS synthetase activities.
The yeast system was used to determine if chlorate could be used to effect a relevant decrease in the accumulation of PAP in the presence of lithium. […] The decrease in PAP accumulation was physiologically relevant since chlorate produced a protective effect in the presence of lithium. […] When 25 mM NaClO3 is included in the culture medium, the growth inhibition is abated, with the IC50 increasing to approximately 80 mM LiCl (FIG. 11)

cultured IMCD cells = assay: cAMP production during stimulation of cultured IMCD cells; format: cell-based, mouse; conditions: lithium present
[4] = biological target: T1, GST-PST (mouse phenol-preferring sulfotransferase fused to GST) (Mus musculus, UniProt P52840); assay: Binding of radiolabeled PAP to GST-PST (Scatchard); conditions: 100 nM purified GST-PST; Scatchard plot
T1 construct: The PST open reading frame was subcloned into the BamHI and NotI sites of pGEX4T-1; made in house; host or cells: bacteria (pGEX4T-1)
Experimental: FIG. 8 is a graph showing binding of PAP to GST-PST. Binding of radiolabeled PAP to 100 nM purified GST-PST was assayed in the presence of various concentrations of unlabeled PAP. […] The data are linear and intersect the y-axis at [Sb]/[Sf]=2.8.
Measurement of intracellular PAP concentrations. A novel isotope binding competition assay was developed to measure intracellular concentrations of PAP. The concentration of PAP in lysates was determined by the binding of radiolabeled PAP to the enzyme phenol (aryl) sulfotransferase (PST), which uses PAP as a cofactor (Yang, 1996b). […] The open reading frame was amplified by PCR using the primers 5′ […] (SEQ ID NO: 15) and 5′ […] (SEQ ID NO: 16) where the underlined sequences correspond to sequence in the PST open reading frame. The PCR product was gel purified and ligated into the pCR2.1 vector. […] The PST open reading frame was subcloned into the BamHI and NotI sites of pGEX4T-1 to create a bacterial expression vector in which PST was expressed in frame downstream of GST (GST-PST). […]
For the assay of intracellular PAP concentrations, appropriate yeast strains were grown in CM/ura^− to mid-log phase (OD600=1.0). […] The amount of soluble protein in this extract was determined using a Bradford dye-binding assay (BioRad, Hercules, Calif., United States of America) with bovine serum albumin as a standard. […]

adenylate cyclase = conditions: preparations of native adenylate cyclase-containing membranes; P-site inhibitor; read-out: IC50 for inhibition of adenylate cyclase; cited from earlier work

T1 sequence (P52840 whole entry, the tested form may be a part): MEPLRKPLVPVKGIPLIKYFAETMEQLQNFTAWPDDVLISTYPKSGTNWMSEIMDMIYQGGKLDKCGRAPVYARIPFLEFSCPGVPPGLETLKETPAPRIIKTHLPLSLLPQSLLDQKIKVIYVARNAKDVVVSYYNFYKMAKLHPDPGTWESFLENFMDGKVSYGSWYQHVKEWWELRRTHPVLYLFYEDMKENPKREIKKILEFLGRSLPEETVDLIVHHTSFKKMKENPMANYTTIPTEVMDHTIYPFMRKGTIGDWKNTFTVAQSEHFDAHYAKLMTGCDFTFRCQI

With `CSCC[C@H](N)C(=O)O` [methionine] the “Intracellular PAP concentration with methionine” value ([1]; wild type, lithium present, methionine 20 μg/ml in media) was 2.3 nmol/mg, the “Effect of methionine on PAP accumulation” value ([2]; met14Δ expressing hPAPSS2 from galactose-inducible vector, lithium present) was “little effect” and the “Effect of methionine on PAP accumulation” value ([3]; met3Δ expressing hPAPSS2 from galactose-inducible vector, lithium present) was “little effect”.

For `O=P(O)(O)O[C@H]1[C@H](O)[C@@H](O)[C@H](OP(=O)(O)O)[C@@H](O)[C@H]1O` [inositol 1,4-bisphosphate], the Ki (BPntase; read-out: Ki, competitive inhibition of BPntase) is listed as 15 µM.

For `[O-][Cl+2]([O-])O` [chlorate], the “Effect of chlorate on sensitivity of yeast growth to lithium” value (Wild type yeast) was “reduces sensitivity”, the “Fold PAP accumulation with chlorate” value ([1]; wild type, 100 mM lithium plus 25 mM NaClO3) was 30.8 fold and the “Effect of chlorate on lithium-dependent PAP accumulation / production” value ([1]; yeast, lithium present) was “inhibited production of PAP in vivo”. The “Fold PAP accumulation with chlorate” value ([2]; met14Δ expressing hPAPSS2, 100 mM lithium plus 25 mM NaClO3) was 22.1 fold, the “Fold PAP accumulation with chlorate” value ([3]; met3Δ expressing hPAPSS2, 100 mM lithium plus 25 mM NaClO3) was 27.0 fold and the “Effect of chlorate on accumulation of cAMP” value (cultured IMCD cells) was “partially restored”.

In the case of `Nc1ncnc2c1ncn2[C@@H]1O[C@H](COP(=O)(O)OS(=O)(=O)O)[C@@H](OP(=O)(O)O)[C@H]1O` [3′-phosphoadenosine 5′-phosphosulfate], the “Vmax of BPntase substrate” value (BPntase; removal of 3′-phosphate) is listed as 40 µmol/min/mg and the Km (BPntase; removal of 3′-phosphate, read-out: Km of BPntase substrate) is listed as 0.5 µM.

For `Nc1ncnc2c1ncn2[C@@H]1O[C@H](COP(=O)(O)O)[C@@H](OP(=O)(O)O)[C@H]1O` [PAP, 3′-phosphoadenosine 5′-phosphate], the Kd [4] is given as ~0.035 µM and 0.0357 µM and the IC50 (adenylate cyclase) is given as roughly 50 µM.
